Test results published in patent US12116397B2, “IL-IR-I binding polypeptide” (Swedish Orphan Biovitrum AB (publ), priority 2017, dated 2024).

Key:
human whole blood = assay: Inhibition of IL-1β induced IL-6 production in whole blood; assay type: cell-based; conditions: 100 pM IL-1β
Description: The inhibitory effect of IL-1R-I binding fusion proteins on IL-1β induced IL-6 production in whole blood from individual donors was measured.
Blood from healthy donors was collected 1-3 hours prior to treatment with the IL-1R-I binding fusion proteins (SEQ ID NO:1648-1649). Proteins (IL-1R-I binding fusion proteins or anakinra) were diluted to starting concentration of 500 nM in serum free RPMI (ThermoFisher Scientific, RPMI 1640 Medium, GlutaMAX™ Supplement, Cat. No.: 61870010) and subsequently serially diluted 1:3 in a ten-step dilution series resulting in a concentration range of 500 nM to 25 pM. The IL-1R-I binding fusion polypetides or anakinra were tested in presence of a challenge dose of 100 pM IL-1β. The blood was incubated for 21-23 hours with proteins, followed by harvesting of plasma. Harvested plasma was diluted 2× and IL-6 content was analyzed by using a human IL-6 kit (V-PLEX Human IL-6 Kit Human interleukin-6, MSD) according to manufacturer's recommendations.
IL-6 concentrations (pg/ml) were calculated using a standard curve (provided by the kit) and data was analyzed using XLfit and IC50 values were calculated from the concentration-response curves.

[1] = tested on: Normal Human Dermal Fibroblasts (NHDF) cells; assay: Inhibition of IL-1β induced IL-6 production in NHDF cells; assay type: cell-based; conditions: 3.4 pM IL-1β
Description: The inhibitory effect of IL-1R-I binding fusion proteins on IL-1β induced IL-6 production in Normal Human Dermal Fibroblasts (NHDF) cells was monitored.
Cells were seeded three days prior to treatment with proteins. […] Harvested medium was diluted 41× before IL-6 content was analyzed using a human IL-6 ELISA kit (R&D Systems) according to manufacturer's recommendations. Data was analyzed using XLfit and IC50 values were calculated from concentration-response curves.

Kineret: recombinant form of endogenous IL-1Ra denoted anakinra (Kineret)
IL-1β induced IL-6 release in human whole blood (human whole blood): reduced in a concentration-dependent manner | IL-1β induced IL-6 release from NHDF cells [1]: reduced in a concentration-dependent manner
